Data: patent US20160130278A1 (TAISHO PHARMACEUTICAL CO., LTD, priority 2013, published 2016)

Target: T1, human type 1 glycine transporter (GlyT1) (Homo sapiens, UniProt P48067)
T1 construct: T98G cells (glioma cells) expressing human type 1 glycine transporter (GlyT1) were used
T1 sequence (P48067 1-706): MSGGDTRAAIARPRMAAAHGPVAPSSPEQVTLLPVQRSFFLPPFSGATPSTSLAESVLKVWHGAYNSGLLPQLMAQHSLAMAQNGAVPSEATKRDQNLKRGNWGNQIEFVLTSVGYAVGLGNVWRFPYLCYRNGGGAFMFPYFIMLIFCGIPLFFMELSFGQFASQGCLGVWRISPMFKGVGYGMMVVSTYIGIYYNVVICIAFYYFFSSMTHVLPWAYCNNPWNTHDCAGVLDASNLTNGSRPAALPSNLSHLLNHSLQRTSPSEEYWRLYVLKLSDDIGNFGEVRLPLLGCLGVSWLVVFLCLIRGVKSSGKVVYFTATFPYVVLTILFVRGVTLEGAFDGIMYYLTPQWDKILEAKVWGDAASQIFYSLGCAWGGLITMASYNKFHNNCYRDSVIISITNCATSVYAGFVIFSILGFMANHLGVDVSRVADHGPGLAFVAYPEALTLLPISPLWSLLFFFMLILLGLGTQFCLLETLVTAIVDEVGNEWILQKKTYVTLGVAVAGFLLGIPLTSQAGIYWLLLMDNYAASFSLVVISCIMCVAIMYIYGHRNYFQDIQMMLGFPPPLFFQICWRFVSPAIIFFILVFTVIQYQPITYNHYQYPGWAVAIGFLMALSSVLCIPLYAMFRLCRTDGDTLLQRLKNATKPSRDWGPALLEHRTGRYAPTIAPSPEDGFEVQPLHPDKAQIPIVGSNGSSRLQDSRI
Assay: Glycine uptake inhibition experiment ([3H]glycine uptake)
Type: cell-based
Description: Glycine Uptake Inhibition Experiment
A glycine uptake experiment was conducted in accordance with the method published in Neuron, 8, 927-935, 1992. In the experiment, T98G cells (glioma cells) expressing human type 1 glycine transporter (GlyT1) were used. The T98G cells were seeded in a 96-well plate at 2.0×10^4 cells/well and cultured overnight in a CO2 incubator. The test substance was dissolved in a 100% DMSO solution and then dissolved in a 10 mM HEPES buffer solution (pH 7.4) containing 150 mM sodium chloride, 1 mM calcium chloride, 5 mM potassium chloride, 1 mM magnesium chloride, 10 mM glucose and 0.2% bovine serum albumin. After removing the cell culture medium, the test substance was subjected to a 10-min pretreatment. Subsequently, the test substance and [^3H] glycine (final concentration: 250 nM) were added to the cells and reaction was performed at room temperature for 15 minutes. After the end of the reaction, the extracellular fluid was aspirated with a manifold to remove excess labeled glycine present outside the cells, and then the cells were lysed with a 0.5 M aqueous sodium hydroxide solution. The glycine content in the cells was determined by measuring the radioactivity in the cell lysate with a liquid scintillation counter. Glycine uptake in the presence of 10 μM ALX5407 was defined as non-specific uptake, and the value calculated by subtracting the amount of the non-specific uptake from the total uptake in the absence of 10 μM ALX5407 was defined as specific uptake. In addition, glycine uptake inhibitory activity (IC50 value) was calculated from an inhibition curve at the concentrations of each test substance ranging from 10^−9 to 10^−5 M. It should be noted that ALX5407 is an HCl salt of N-[(3R)-3-([1,1′-biphenyl]-4-yloxy)-3-(4-fluorophenyl)propyl]-N-methylglycine.

SMILES | IC50 (GlyT1) [nM] | IC50 (human GlyT1) [nM]
O=C(NC(c1cccc(Cl)n1)C1(O)CCCC1)c1nccc(C(F)(F)F)c1Cl (single isomer, unassigned) [Compound 398, 3-chloro-N-[(6-chloropyridin-2-yl)(1-hydroxycyclopentyl)methyl]-4-(trifluoromethyl)pyridine-2-carboxamide] | – | 7500
O=C(NC(c1cc(Cl)ccc1F)[C@]1(O)CC[C@@H](F)CC1)c1cc(C(F)(F)F)ncc1Cl (single isomer, unassigned) [Compound 377, 5-chloro-N-[(5-chloro-2-fluorophenyl)(cis-4-fluoro-1-hydroxycyclohexyl)methyl]-2-(trifluoromethyl)pyridine-4-carboxamide] | 920 | –
O=C(NC(c1cccnc1Cl)[C@]1(O)CC[C@@H](F)CC1)c1cccc(C(F)(F)F)c1Cl (single isomer, unassigned) [Compound 322, 2-chloro-N-[(2-chloropyridin-3-yl)(cis-4-fluoro-1-hydroxycyclohexyl)methyl]-3-(trifluoromethyl)benzamide] | 350 | –
O=C(NC(c1cccc(Br)c1)C1(O)CCCC1)c1nccc(C(F)(F)F)c1Cl (stereo not shown) [Compound 31, N-[(3-bromophenyl)(1-hydroxycyclopentyl)metyl]-3-chloro-4-(trifluoromethyl)pyridine-2-carboxamide] | 170 | –
CCn1cc(-c2cccc(C(NC(=O)c3cc(Cl)ccc3C(F)(F)F)C3(O)CCC(F)(F)CC3)c2)cn1 (single isomer, unassigned) [Compound 218, 5-chloro-N-[(4,4-difluoro-1-hydroxycyclohexyl)[3-(1-ethyl-1H-pyrazol-4-yl)phenyl]methyl}-2-(trifluoromethyl)benzamide] | 5900 | –
O=C(NC(c1cccc(Cl)c1)C1(O)CCCCC1)c1nccc(C(F)(F)F)c1Cl (stereo not shown) [Compound 212, 3-chloro-N-[(3-chlorophenyl)(1-hydroxycyclohexyl)methyl]-4-(trifluoromethyl)pyridine-2-carboxamide] | 84 | –
O=C(NC(c1cc(Cl)ccn1)C1(O)CCC(F)(F)CC1)c1cc(C(F)(F)F)cnc1Cl (single isomer, unassigned) [Compound 360, 2-chloro-N-[(4-chloropyridin-2-yl)(4,4-difluoro-1-hydroxycyclohexyl)methyl]-5-(trifluoromethyl)pyridine-3-carboxamide] | 520 | –
CCn1cc(-c2cccc(C(NC(=O)c3nccc(C(F)(F)F)c3Cl)C3(O)CCCC3)c2)cn1 (stereo not shown) [Compound 10, 3-chloro-N-{[3-(1-ethyl-1H-pyrazol-4-yl)phenyl](1-hydroxycyclopentyl)methyl}-4-(trifluoromethyl)pyridine-2-carboxamide] | 13 | –
CCOc1cccc(C(NC(=O)c2nccc(C(F)(F)F)c2Cl)C2(O)CCCC2)c1 (stereo not shown) [Compound 87, 3-chloro-N-[(3-ethoxyphenyl)(1-hydroxycyclopentyl)methyl]-4-(trifluoromethyl)pyridine-2-carboxamide] | 300 | –

More lines, now with the values ahead:

IC50 (GlyT1) [nM] | IC50 (human GlyT1) [nM] | SMILES
610 | – | Cc1cccc(Cl)c1C(=O)NC(c1cccc(F)c1Cl)[C@]1(O)CC[C@@H](F)CC1 (single isomer, unassigned) [Compound 299, 2-chloro-N-[(2-chloro-3-fluorophenyl)(cis4-fluoro-1-hydroxycyclohexyl)methyl]-6-methylbenzamide]
220 | – | O=C(NC(c1cc(Cl)cc(Cl)c1)C1(O)CCCC1)c1nccc(C(F)(F)F)c1Cl (stereo not shown) [Compound 111, 3-chloro-N-[(3,5-dichlorophenyl)(1-hydroxycyclopentyl)methyl]-4-(trifluoromethyl)pyridine-2-carboxamide]
28 | – | O=C(NC(c1cccc(Cl)c1)C1(O)CCCCC1)c1nccc(C(F)(F)F)c1Cl (single isomer, unassigned) [Compound 229, 3-chloro-N-[(3-chlorophenyl)(1-hydroxycyclohexyl)methyl]-4-(trifluoromethyl)pyridine-2-carboxamide]
1700 | – | O=C(NC(c1cc(Cl)ccn1)[C@]1(O)CC[C@@H](F)CC1)c1cc(C(F)(F)F)ncc1Cl (single isomer, unassigned) [Compound 333, 5-chloro-N-[(4-chloropyridin-2-yl)(cis-4-fluoro-1-hydroxycyclohexyl)methyl]-2-(trifluoromethyl)pyridine-4-carboxamide]
220 | – | O=C(NC(c1cccc(Cl)n1)C1(O)CCC(F)(F)CC1)c1cc(C(F)(F)F)cnc1Cl (single isomer, unassigned) [Compound 354, 2-chloro-N-[(6-chloropyridin-2-yl)(4,4-difluoro-1-hydroxycyclohexyl)methyl]-5-(trifluoromethyl)pyridine-3-carboxamide]
2100 | – | CS(=O)(=O)c1ccccc1C(=O)NC(c1cccc(F)c1Cl)[C@]1(O)CC[C@@H](F)CC1 (single isomer, unassigned) [Compound 281, N-[(2-chloro-3-fluorophenyl)(cis-4-fluoro-1-hydroxycyclohexyl)methyl]-2-(methylsulfonyl)benzamide]
550 | – | O=C(NC(c1cccc(Cl)n1)[C@]1(O)CC[C@@H](F)CC1)c1cc(C(F)(F)F)ncc1Cl (single isomer, unassigned) [Compound 309, 5-chloro-N-[(6-chloropyridin-2-yl)(cis-4-fluoro-1-hydroxycyclohexyl)methyl]-2-(trifluoromethyl)pyridine-4-carboxamide]
8700 | – | CCn1cc(-c2cccc(C(NC(=O)c3ncc(Cl)cc3C(F)(F)F)C3(O)CCC(F)(F)CC3)c2)cn1 (stereo not shown) [Compound 206, 5-chloro-N-{(4,4-difluoro-1-hydroxycyclohexyl)[3-(1-ethyl-1H-pyrazol-4-yl)phenyl]methyl}-3-(trifluoromethyl)pyridine-2-carboxamide]
2500 | – | Cn1nc(C(F)(F)F)cc1C(=O)NC(c1cccc(F)c1Cl)[C@]1(O)CC[C@@H](F)CC1 (single isomer, unassigned) [Compound 272, N-[(2-chloro-3-fluorophenyl)(cis-4-fluoro-1-hydroxycyclohexyl)methyl]-1-methyl-3-(trifluoromethyl)-1H-pyrazole-5-carboxamide]
34 | – | O=C(NC(c1cccc(-c2ccncc2)c1)C1(O)CCCC1)c1nccc(C(F)(F)F)c1Cl (stereo not shown) [Compound 19, 3-chloro-N-{(1-hydroxycyclopentyl)[3-(pyridin-4-yl)phenyl]methyl}-4-(trifluoromethyl)pyridine-2-carboxamide]
5500 | – | CCn1cc(-c2cccc(C(NC(=O)c3ccc(F)cc3C(F)(F)F)C3(O)CCC(F)(F)CC3)c2)cn1 (single isomer, unassigned) [Compound 216, N-{(4,4-difluoro-1-hydroxycyclohexyl)[3-(1-ethyl-1H-pyrazol-4-yl)phenyl]methyl}-4-fluoro-2-(trifluoromethyl)benzamide]
110 | – | O=C(NC(c1cccc(F)c1Cl)[C@]1(O)CC[C@@H](F)CC1)c1nccc(C(F)F)c1Cl (single isomer, unassigned) [Compound 241, 3-chloro-N-[(2-chloro-3-fluorophenyl)(cis-4-fluoro-1-hydroxycyclohexyl)methyl]-4-(difluoromethyl)pyridine-2-carboxamide]
35 | – | CS(=O)(=O)c1cnc(C(F)(F)F)cc1C(=O)NC(c1cccc(F)c1Cl)[C@]1(O)CC[C@@H](F)CC1 (single isomer, unassigned) [Compound 386, N-[(2-chloro-3-fluorophenyl)(cis-4-fluoro-1-hydroxycyclohexyl)methyl]-5-(methylsulfonyl)-2-(trifluoromethyl)pyridine-4-carboxamide]
